Measured values published in US20130123358A1, “Metabolic Benefits to Butyrate as a Chronic Diet Supplement” (priority 2009, published 2013).

Key:
[1] = tested on: C57BL/6J mice on high fat diet; assay: Energy metabolism and body composition in diet-induced obesity, butyrate started with HFD; type: in vivo, mouse
Experimental: Male C57BL/6J (4 weeks in age) and ob/ob mice (4 weeks in age) were purchased from the Jackson Laboratory (Bar Harbor, Me.). After one week quarantine, the C57BL/6J mice were fed on the high fat diet (HFD, D12331, Research Diets, New Brunswick, N.J.), which contains 58% calories in fat. The ob/ob mice were fed on Chow diet (5001, Lab Diet) that contains 13.4% calories in fat. All of the mice were housed in the animal facility with a 12:12-h light-dark cycle and constant temperature (22-24° C.). The mice were free to access water and diet. All procedures were performed in accordance with National Institute of Health guidelines for the care and use of animals and approved by the Institute Animal Care and Use Committee at the Pennington Biomedical Research Center.
Sodium butyrate was administrated through dietary supplementation. Sodium butyrate (#303410, Sigma) was incorporated into the HFD evenly through blending the diet and sodium butyrate together at 400 rpm in a food processor. Sodium butyrate (50 g) was used in 1 kg diet to reach a dose of 5% w/w. The sodium butyrate containing diet was pelleted and stored in a −20° C. freezer. Trichostatin A (TSA) (T-1052, A.G. Scientific Inc. San Diego, Calif.) was dissolved in DMSO, and diluted in 0.9% saline at 2:98 ratio. The TSA solution (200 ul) was administrated by intra-peritoneal (i.p.) injection to reach a dose of […]. The control mice were administrated with the same volume of vehicle. 50 ml of tributyrin (#113026, Sigma) was incorporated into one kilogram of Chow diet in powder to reach a dose of 5% w/w in mice.
Body composition was measured using quantitative nuclear magnetic resonance (NMR) as previously described (15). In the test, a conscious and unrestrained mouse was placed in a small tube one at a time and individually tested using a Brucker model mq10 NMR analyzer (Brucker, Canada, Milton ON, Canada). The fat and lean mass were recorded within 1 min. Measurements were made in triplicate for each mouse.
Energy expenditure, respiratory exchange ratio (RER), spontaneous physical movement, and food intake were measured simultaneously for each mouse with the Comprehensive Laboratory Animal Monitoring System (Columbus Instruments, Columbus, Ohio) as described previously (15). The temperature in the metabolic chamber was 24° C. The mice were housed individually in the metabolic chamber. After 48 h of adaptation, the data were recorded for all parameters and used in analysis of the energy metabolism.
Butyrate was initially tested for prevention of dietary obesity. In the diet-induced obesity model, the butyrate supplementation started at the beginning of high fat diet (HFD) feeding. The plain HFD was used in the control group. Calorie intake was monitored four times in the first ten weeks. After normalization with body weight, the calorie intake was reduced with the increase in age.
Energy expenditure was examined in C57BL/6J mice using the metabolic chamber at the first week and the tenth week on HFD (16 weeks in age). In this study, sodium butyrate was used at 5% w/w in HFD. […] Food intake was monitored daily for 5 days at each time point. Average daily food intake (g) was converted into K calorie and normalized with body weight (kg) and 24 hours. […] FIG. 1E illustrates the body weight of the mice over 16 weeks. FIG. 1F illustrates the body fat content as determined by NMR expressed as a percentage of body weight. FIG. 1G illustrates the body muscle content expressed as a percentage of body weight. […] Feces were collected in the cages during a 24 hr period on HFD at 12 weeks, and the total lipids were extracted and quantified (P>0.05, n=5). […] The frequency of horizontal movement was shown for day and night time at 10 wks on HFD. For FIGS. 1A-1D and 1I, the number of mice was 8 in both the control or butyrate groups. For FIGS. 1E-1G, the number of mice was 10 in both the control or butyrate group. Values given in FIGS. 1A-1I are the mean±SE. *P<0.05, **P<0.001 by Student's t test. […]

[2] = tested on: C57BL/6J mice on high fat diet; assay: Blood lipids and TNF-a in HFD mice; type: in vivo, mouse
Experimental: The serum fatty acids including butyrate were examined using a protocol described elsewhere (18), and as described below in Example 10. The fatty acids in feces were determined using a protocol as described by Schwarz (19). Triglyceride and cholesterol were measured in the whole blood with the Cardiochek portable test system.
Levels of cholesterol, total triglyceride and inflammation cytokines (TNF-a) were elevated in the blood of dietary obese mice. With 5% SB supplementation, these risk factors for cardiovascular disease were all reduced in the mice (FIG. 10A-E). Blood samples were taken from control and butyrate-supplemented mice at 10 weeks on HFD. The cholesterol, HDL (high density lipoprotein), LDL (low density lipoprotein), and triglyceride were measured with cholesterol reagent kit (cat #. 80015, Rainchem, San Diego, Calif.), and the Cardiochek whole blood test system (Polymer Technology Systems, Inc. IN). Data are presented as means±SEM (n=6). **P<0.001 by Student's t test.

[3] = butyrate 5% w/w in HFD vs control, metabolic chamber, weeks 1 and 10
[4] = butyrate 5% w/w in HFD, NMR, change during 16 weeks

Compound: CCCC(=O)[O-].[Na+] [sodium butyrate]
- toxicity (by food intake and physical activity) ([1]; butyrate 5% w/w in HFD): no toxicity was observed
- calorie intake ([1]; butyrate 5% w/w in HFD vs HFD control, first ten weeks): significantly higher at all of the time points
- body length (mouse growth) ([1]; butyrate 5% w/w in HFD vs control): identical between the two groups
- spontaneous physical activity ([1]; butyrate 5% w/w in HFD vs control, 10 wks on HFD, day and night): not reduced
- energy expenditure [1, 3]: elevated at the night time
- oxygen consumption [1, 3]: elevated at the night time
- respiratory exchange ratio (RER) ([1]; butyrate 5% w/w in HFD vs control, weeks 1 and 10): reduced during the day and night time
- fat content (adiposity) [1, 4]: not significantly changed
- lean mass [1, 4]: not significantly changed
- body weight ([1]; butyrate 5% w/w in HFD, change during 16 weeks): not significantly changed
- body fat content ([1]; butyrate 5% w/w in HFD, without a reduction in food intake): 10%
- hepatic steatosis ([1]; mice on high fat diet with SB, sixteen weeks): reduced
- LDL, reduction vs control ([2]; 5% SB in HFD, 10 weeks, blood): 41%
- Triglyceride, reduction vs control ([2]; 5% SB in HFD, 10 weeks, blood): 40%
- total cholesterol, reduction vs control ([2]; 5% SB in HFD, 10 weeks, blood): 25%
- TNF-a, reduction vs control ([2]; 5% SB in HFD, 10 weeks, blood, Luminex): 70%
- blood total fatty acids ([2]; butyrate 5% w/w in HFD): decreased
